Reference: PubChem BioAssay (NCI)
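Dose response: 5 concentrations. Exposure: 48 h. Format: 96-well plates. Endpoint: linear interpolation; highest concentration if not reached. GI50: concentration for 50% inhibition of growth. The concentration for full growth arrest is given as TGI.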

Key:
Assay in all cases: NCI-60 cell line screen, 48 h
NCI/ADR-RES ovarian = tested on: NCI/ADR-RES ovarian
TK-10 renal = tested on: TK-10 renal
HCC-2998 colon = tested on: HCC-2998 colon
MDA-MB-468 breast = tested on: MDA-MB-468 breast
SNB-19 CNS = tested on: SNB-19 CNS
SK-MEL-2 melanoma = tested on: SK-MEL-2 melanoma
HS 578T breast = tested on: HS 578T breast
MDA-MB-231 breast = tested on: MDA-MB-231 breast
BT-549 breast = tested on: BT-549 breast
T-47D breast = tested on: T-47D breast
HCT-116 colon = tested on: HCT-116 colon
MCF7 breast = tested on: MCF7 breast
CAKI-1 renal = tested on: CAKI-1 renal
SW-620 colon = tested on: SW-620 colon
NCI-H522 lung = tested on: NCI-H522 lung
IGROV1 ovarian = tested on: IGROV1 ovarian
NCI-H226 lung = tested on: NCI-H226 lung
DU-145 prostate = tested on: DU-145 prostate
OVCAR-8 ovarian = tested on: OVCAR-8 ovarian
SK-OV-3 ovarian = tested on: SK-OV-3 ovarian
OVCAR-4 ovarian = tested on: OVCAR-4 ovarian
NCI-H23 lung = tested on: NCI-H23 lung
A498 renal = tested on: A498 renal
786-0 renal = tested on: 786-0 renal
RXF 393 renal = tested on: RXF 393 renal
UACC-257 melanoma = tested on: UACC-257 melanoma
SR leukemia = tested on: SR leukemia
CCRF-CEM leukemia = tested on: CCRF-CEM leukemia
UO-31 renal = tested on: UO-31 renal
COLO 205 colon = tested on: COLO 205 colon

In the case of `CCOP(=O)(CC(F)(F)C(F)(F)F)OCC`, the GI50 (NCI/ADR-RES ovarian) is reported as 2.31 µM, the TGI (NCI/ADR-RES ovarian) is reported as 5.95 µM and the GI50 (TK-10 renal) is reported as 3.11 µM. It also gave a TGI (TK-10 renal) of 7.27 µM, a GI50 (HCC-2998 colon) of 12.2 µM and a TGI (HCC-2998 colon) of 25.2 µM. For the same compound, the GI50 (MDA-MB-468 breast) was 1.24 µM, the TGI (MDA-MB-468 breast) was 2.99 µM and the GI50 (SNB-19 CNS) was 26.2 µM. For the same compound, the TGI (SNB-19 CNS) was over 100 µM, the GI50 (SK-MEL-2 melanoma) was 17.3 µM and the TGI (SK-MEL-2 melanoma) was 39.2 µM. The GI50 (HS 578T breast) was 5.55 µM, the TGI (HS 578T breast) was 94 µM and the GI50 (MDA-MB-231 breast) was 3.43 µM. For the same compound, the TGI (MDA-MB-231 breast) was 12.3 µM, the GI50 (BT-549 breast) was 4.17 µM and the TGI (BT-549 breast) was 20.5 µM. It also gave a GI50 (T-47D breast) of 2.19 µM, a TGI (T-47D breast) of 7.23 µM and a GI50 (HCT-116 colon) of 1.86 µM. For the same compound, the TGI (HCT-116 colon) was 4.86 µM, the GI50 (MCF7 breast) was 2.45 µM and the TGI (MCF7 breast) was 12.1 µM. The GI50 (CAKI-1 renal) was 3.06 µM, the TGI (CAKI-1 renal) was 10.6 µM and the GI50 (SW-620 colon) was 1.83 µM. The TGI (SW-620 colon) was 3.92 µM, the GI50 (NCI-H522 lung) was 0.505 µM and the TGI (NCI-H522 lung) was 1.86 µM. It also gave a GI50 (IGROV1 ovarian) of 18.5 µM, a TGI (IGROV1 ovarian) of 38.8 µM and a GI50 (NCI-H226 lung) of 16.5 µM. It also gave a TGI (NCI-H226 lung) of 58.2 µM, a GI50 (DU-145 prostate) of 5.56 µM and a TGI (DU-145 prostate) of 18.4 µM. For the same compound, the GI50 (OVCAR-8 ovarian) was 3.79 µM, the TGI (OVCAR-8 ovarian) was 55.3 µM and the GI50 (SK-OV-3 ovarian) was 27.4 µM. For the same compound, the TGI (SK-OV-3 ovarian) was 74.8 µM, the GI50 (OVCAR-4 ovarian) was 8.98 µM and the TGI (OVCAR-4 ovarian) was 23.9 µM. For the same compound, the GI50 (NCI-H23 lung) was 7.93 µM, the TGI (NCI-H23 lung) was 23.9 µM and the GI50 (A498 renal) was 19.7 µM. It also gave a TGI (A498 renal) of 37 µM, a GI50 (786-0 renal) of 4.2 µM and a TGI (786-0 renal) of 16.8 µM. It also gave a GI50 (RXF 393 renal) of 1.06 µM, a TGI (RXF 393 renal) of 2.37 µM and a GI50 (UACC-257 melanoma) of 2.57 µM. For the same compound, the TGI (UACC-257 melanoma) was 11.1 µM, the GI50 (SR leukemia) was 2.4 µM and the TGI (SR leukemia) was 11.5 µM. For the same compound, the GI50 (CCRF-CEM leukemia) was 2.9 µM, the TGI (CCRF-CEM leukemia) was 15.8 µM and the GI50 (UO-31 renal) was 2.82 µM. For the same compound, the TGI (UO-31 renal) was 10.9 µM and the GI50 (COLO 205 colon) was 1.84 µM.
